What was measured:
Assay type in all cases: in vivo
rheumatoid arthritis = test: Treatment of a rheumatoid arthritis patient with oral tablets (Example A); settings: human female, three 15 mg tablets per day orally for 2 years
Protocol: A tablet composition for oral administration, according to the present invention, is made comprising:
A human subject weighing 60 kg (132 lbs), suffering from rheumatoid arthritis, is treated by a method of this invention. Specifically, for 2 years, a regimen of three tablets per day is administered orally to said subject.

premetastatic tumor = test: Injection beside a premetastatic tumor in a human subject (Example G); settings: 100 mg/ml suspension, approx. 2.0 ml injected beside the tumor twice daily, after 30 days
Protocol: A composition for parenteral administration is made comprising: The above ingredients are mixed, forming a suspension. Approximately 2.0 ml of the suspension is administered, via injection, to a human subject with a premetastatic tumor. The injection site juxtaposes the tumor. This dosage is repeated twice daily, for approximately 30 days.

osteoarthritis = test: Treatment of an osteoarthritis patient with oral capsules (Example B); settings: human male, capsule with 70 mg daily for 5 years
Protocol: A capsule for oral administration, according to the present invention, is made comprising:
A human subject weighing 90 kg (198 lbs), suffering from osteoarthritis, is treated by a method of this invention. Specifically, for 5 years, a capsule containing 70 mg of Example 3 is administered daily to said subject.

chemical burns = test: Topical composition in a patient with chemical burns (Example D); settings: 0.20% w/v topical composition at each dressing change (b.i.d.)
Text: An topical composition for local administration, according to the present invention, is made comprising:
A patient suffering from chemical burns applies the composition at each dressing change (b.i.d.).

COc1ccc(S(=O)(=O)N2CCSCCC2C(=O)NO)cc1 (centres unmarked) [Example 9, N-Hydroxy-4-[(4-methoxyphenyl)sulfonyl]-thiazepine-5-carboxamide]
inflammation at the end of the treatment period (rheumatoid arthritis): reduced inflammation | mobility and pain at the end of the treatment period (rheumatoid arthritis): improved mobility without concomitant pain

COc1ccc(S(=O)(=O)N2CCN(C(C)C)C(=O)C[C@@H]2C(=O)NO)cc1 [Example 4, N-Hydroxy 1-(1-Methylethyl)-4-[(4-methoxyphenyl)sulfonylamino]-7-oxo-1,4-diazepine-5(R)-carboxamide]
symptoms of the disease (premetastatic tumor): symptoms of the disease subside

COc1ccc(S(=O)(=O)N2CN(Cc3ccccc3)C(=O)C(C)(C)C2C(=O)NO)cc1 (racemic) [Example 3, N-Hydroxy 1-Benzyl-5,5-dimethyl-3-[(4-methoxyphenyl)sulfonyl]-6-oxo-hexahydro-pyrimidine-4(R,S)-carboxamide]
erosion/fibrillation of the articular cartilage, examined via orthoscopy (osteoarthritis): no further advancement of erosion/fibrillation of the articular cartilage | scarring (chemical burns): Scarring is substantially diminished

Source: patent US6399598B1, “Diheterocyclic metalloprotease inhibitors” (The Procter & Gamble Company, priority 1996, dated 2002)
